In patent publication US12161620B2, “Devices and methods for facilitating and controlling use of a medication” (priority 2013, dated 2024):
Like-named read-outs stand apart in the source and are kept apart here.

What was measured:
[1] = PubChem; cited from earlier work
[2] = cited from earlier work
[3] = pungency; cited from earlier work
[4] = Taste of sucrose octaacetate solution before and after lime treatment (Example 10); conditions: 60 ppm in water
[5] = taste detection; cited from earlier work
[6] = in vivo; cited from earlier work
[7] = cited from earlier work; remark: listed apart in the source
[8] = Taste of denatonium saccharide solution before and after activated carbon treatment (Example 11); conditions: 90 ppm in water
Protocol: Example 11. In a lab evaluation, 90 ppm denatonium saccharide in water was prepared. To 40 mL samples were added 100 mg and […], respectively, of powdered activated carbon Ecosorb EC-947. The samples were stirred for about 2 days to equilibrate.

COc1cc(CNC(=O)CCCC/C=C/C(C)C)ccc1O [Capsaicin, capsaicin]
LogP [1]: 3.6
solubility in alcohol [2]: soluble in alcohol
water solubility [2]: ~10 ppm
threshold of effect [3]: about 0.02 ppm

CC(=O)OC[C@H]1O[C@@](COC(C)=O)(O[C@H]2O[C@H](COC(C)=O)[C@@H](OC(C)=O)[C@H](OC(C)=O)[C@H]2OC(C)=O)[C@@H](OC(C)=O)[C@@H]1OC(C)=O [sucrose octaacetate]
taste of untreated solution [4]: intensely bitter
LogP [1]: −0.9
level at which detectable [5]: 10 ppm
solubility in alcohol [2]: very soluble in alcohols
water solubility [2]: 900 ppm
water solubility ([2]; listed as Sucrose octaacetate): about 900 ppm
dose that is not lethal [6]: 5 g/kg

CC[N+](CC)(CC(=O)Nc1c(C)cccc1C)Cc1ccccc1 [denatonium]
level at which detectable [5]: 0.01 ppm

O=C(/C=C/C=C/c1ccc2c(c1)OCO2)N1CCCCC1 [Piperine, piperine]
LogP [1]: 3.5
solubility in alcohol [2]: soluble in alcohol
water solubility [2]: 40 ppm
threshold of effect [3]: about 1.35 ppm

CN(C)c1ccc(C(=C2C=CC(=[N+](C)C)C=C2)c2ccc(N(C)C)cc2)cc1.[Cl-] [Gentian Violet]
solubility in water [2]: soluble in water

CC(=O)OCC(COC(C)=O)OC(C)=O [Triacetin, triacetin]
half-life ([7]; pH 9): < 1 days
pH around which stable ([7]; stable only around this pH): ~4

CC[N+](CC)(CC(=O)Nc1c(C)cccc1C)Cc1ccccc1.O=C1[N-]S(=O)(=O)c2ccccc21 [denatonium saccharide]
taste of untreated sample [8]: intensely bitter
duration of taste after administration ([8]; untreated, about 0.1 mL on the tongue): at least two hours

CCN(Cc1cccc(S(=O)(=O)O)c1)c1ccc(C(=C2C=CC(=[N+](CC)Cc3cccc(S(=O)(=O)O)c3)C=C2)c2ccccc2S(=O)(=O)[O-])cc1 [Brilliant Blue]
solubility in water [2]: water-soluble
